We go through two compounds from patent US20260048142A1, “METAL-CHELATED POLYPHENOL COMPLEX NANOPARTICLE, DRUG-LIPID PARTICLE, PREPARATION METHODS FOR THE SAME, AND USES THEREOF” (priority 2022, published 2026).

The test deals with 293T cells. Briefly: CCK8 cell activity, median lethal dose IC50. The format is cell-based, Human. Here is the method: After incubating 293T cells with different concentrations of the metal-chelated polyphenol complex ([…]), cationic lipid (DOTAP, 0, 0.1, 0.3, 0.9, 2.7, 8.1, 24.3, 72.9, 218.7 μM) and ionizable lipid (ALC0315, 0, 0.1, 0.3, 0.9, 2.7, 8.1, 24.3, 72.9, 218.7 μM) for 48 hours, cell activity was detected using a CCK8 activity detection kit, and the median lethal dose IC50 of the metal-chelated polyphenol complex, cationic lipid (DOTAP) and ionizable lipid (ALC0315) for 293T cells was calculated respectively.
• Cell culture: cells were cultivated with DMEM culture medium containing 10% FBS and 1% Penicillin-Streptomycin Solution, and wait until the cell density reached 80%-90% of the culture bottle; • The remaining culture medium in the culture bottle was washed with PBS, the culture bottle was added with trypsin, and quickly transferred to a 37° C. incubator containing 5% CO2. During close observation, when the cells become slightly round, culture medium was added to stop digestion. The mixture was transferred to a centrifuge tube, centrifuged at 1500 RPM for 5 minutes, and the cells were resuspended with fresh culture medium; • Counting: the cell suspension was diluted to 10,0000 cells per 1 mL according to the purpose, 100 μL per well in a 96-well plate, and at least 5 replicates per group. Drug was added after 24 h of incubation at 37° C., 5% CO2; • After drug incubation for 48 h, 10% CCK8 was added, incubated for 1-3 h, and absorbance was measured by an ELISA reader at 450 nm;
[formula] • IC50 calculation method: with survival rate as the ordinate and drug concentration as the abscissa, IC50 was calculated by Graphpad using [Inhibitor] vs. normalized response-Variable slope analysis method.
The calculation method of IC50 is as described in Example 10.

Read-outs that look alike come from different tables or passages of the source.

By IC50 is commonly meant the point on the concentration scale where inhibition reaches its midpoint. As for `CCCCCCCCC(CCCCCC)C(=O)OCCCCCCN(CCCCO)CCCCCCOC(=O)C(CCCCCC)CCCCCCCC` (stereo not shown) [ALC0315], the IC50 is, setting by setting: (Homo sapiens, HEK-293T, 48 h) 115 µM; (Homo sapiens, HEK-293T, Table 4-3, median lethal dose for 293T cells, CCK8, read-out: IC50) 115 µM.

Regarding `CCCCCCCC/C=C\CCCCCCCC(=O)OCC(C[N+](C)(C)C)OC(=O)CCCCCCC/C=C\CCCCCCCC` (stereo not shown) [DOTAP, N-(2,3-dioleoyloxy) propyl)-N,N, N-trimethylammonium chloride], the half-inhibitory concentration (IC50) by setting is: (Table 2-2, median lethal dose for 293T cells, 48 hours, CCK8, read-out: IC50) 25.7 µM; (Table 4-3, median lethal dose for 293T cells, CCK8, read-out: IC50) 25.7 µM.
